The source made the active and inactive calls.
Legend:
[1] = molecular target: Arf-GAP with SH3 domain, ANK repeat and PH domain-containing protein 1 (Homo sapiens, UniProt Q9ULH1); assay type: functional;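 further: biochemical fluorescence polarization dose–response screen measuring inhibition of ASAP1; ASAP1 GAP domain stimulating GTP hydrolysis by truncated human ARF1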
[2] = molecular target: ADP-ribosylation factor GTPase-activating protein 1 (Rattus norvegicus, UniProt Q62848); assay: Fluorescence polarization-based biochemical high throughput dose response screening assay to identify inhibitors of ADP-ribosylation factor GTPase activating protein 1 (ARFGAP1).; assay type: functional
Sequence of ADP-ribosylation factor GTPase-activating protein 1 (Q62848 whole entry): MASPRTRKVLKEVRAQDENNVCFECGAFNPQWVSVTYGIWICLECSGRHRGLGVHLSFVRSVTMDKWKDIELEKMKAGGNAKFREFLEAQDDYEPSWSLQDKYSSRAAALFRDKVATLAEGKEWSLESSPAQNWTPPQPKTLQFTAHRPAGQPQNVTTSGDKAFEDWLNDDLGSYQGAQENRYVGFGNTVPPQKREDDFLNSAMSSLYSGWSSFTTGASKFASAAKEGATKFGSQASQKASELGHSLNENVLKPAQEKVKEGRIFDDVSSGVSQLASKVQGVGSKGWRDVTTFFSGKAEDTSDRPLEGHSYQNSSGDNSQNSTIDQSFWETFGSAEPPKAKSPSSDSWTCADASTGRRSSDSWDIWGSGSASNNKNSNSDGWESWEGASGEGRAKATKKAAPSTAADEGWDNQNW

[3] = molecular target: T1, Beta-lactamase (Pseudomonas aeruginosa, UniProt Q79MP6); assay: inhibition of IMP-1 beta-lactamase activity – biochemical, epi-absorbance, selectivity assay for VIM-2 inhibitor project, dose response (AID 1920)
T1 sequence (Q79MP6 whole entry): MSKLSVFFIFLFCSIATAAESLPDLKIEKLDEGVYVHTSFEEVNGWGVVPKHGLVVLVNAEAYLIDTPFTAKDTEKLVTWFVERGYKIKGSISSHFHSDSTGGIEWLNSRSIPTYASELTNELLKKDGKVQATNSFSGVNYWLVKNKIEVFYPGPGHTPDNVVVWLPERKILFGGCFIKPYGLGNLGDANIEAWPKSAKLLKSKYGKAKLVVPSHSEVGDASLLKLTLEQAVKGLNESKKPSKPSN

[4] = molecular target: Beta-lactamase (Salmonella choleraesuis (strain SC-B67), UniProt Q5J463); assay: Epi-absorbance-based counterscreen for selective VIM-2 inhibitors: dose response biochemical high throughput screening assay to identify inhibitors of TEM-1 serine-beta-lactamase.
Sequence of Beta-lactamase (Salmonella choleraesuis (strain SC-B67), UniProt Q5J463) (Q5J463 whole entry): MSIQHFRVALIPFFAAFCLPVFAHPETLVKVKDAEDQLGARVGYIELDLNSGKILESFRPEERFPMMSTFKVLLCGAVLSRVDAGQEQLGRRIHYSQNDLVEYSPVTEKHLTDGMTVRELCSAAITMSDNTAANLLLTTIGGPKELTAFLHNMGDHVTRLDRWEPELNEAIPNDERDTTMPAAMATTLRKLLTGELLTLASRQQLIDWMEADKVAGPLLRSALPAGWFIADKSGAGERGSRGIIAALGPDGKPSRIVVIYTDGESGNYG

[5] = molecular target: T1, Beta-lactamase; assay: […] counterscreen for selective VIM-2 inhibitors: dose response biochemical high throughput screening assay to identify inhibitors of IMP-1 metallo-beta-lactamase.
[6] = molecular target: T2, Beta Lactamase (Pseudomonas aeruginosa, UniProt Q932Y6); assay: concentration-dependent VIM-2 enzyme inhibition – biochemical, epi-absorbance readout, selective inhibitors, dose response (AID 1919)
T2 sequence (Q932Y6 whole entry): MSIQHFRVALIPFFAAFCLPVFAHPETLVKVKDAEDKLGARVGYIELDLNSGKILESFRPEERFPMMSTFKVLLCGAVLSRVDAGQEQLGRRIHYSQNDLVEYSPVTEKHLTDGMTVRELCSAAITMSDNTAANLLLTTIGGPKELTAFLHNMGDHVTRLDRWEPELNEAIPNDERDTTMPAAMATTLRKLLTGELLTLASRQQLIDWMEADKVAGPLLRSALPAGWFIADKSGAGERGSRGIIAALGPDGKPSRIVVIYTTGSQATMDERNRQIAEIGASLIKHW

[7] = molecular target: T2, Beta Lactamase; assay: VIM-2 CCF2 hydrolysis inhibition, assay artifact filter – biochemical, FRET readout, CCF2 substrate, artefact control for selective VIM-2 inhibitor project, dose response (AID 1926)
[8] = molecular target: Long-chain-fatty-acid--AMP ligase FadD28 (Mycobacterium tuberculosis, UniProt P9WQ59); assay: Fluorescence polarization aasay to screen for inhibitors that compete for the binding of FadD28 to a bisubstrate Measured in Biochemical System Using Plate Reader - 2147-01_Inhibitor_Dose_CherryPick_Activity.; assay type: functional, Mycobacterium tuberculosis H37Rv
Sequence of Long-chain-fatty-acid--AMP ligase FadD28 (P9WQ59 whole entry): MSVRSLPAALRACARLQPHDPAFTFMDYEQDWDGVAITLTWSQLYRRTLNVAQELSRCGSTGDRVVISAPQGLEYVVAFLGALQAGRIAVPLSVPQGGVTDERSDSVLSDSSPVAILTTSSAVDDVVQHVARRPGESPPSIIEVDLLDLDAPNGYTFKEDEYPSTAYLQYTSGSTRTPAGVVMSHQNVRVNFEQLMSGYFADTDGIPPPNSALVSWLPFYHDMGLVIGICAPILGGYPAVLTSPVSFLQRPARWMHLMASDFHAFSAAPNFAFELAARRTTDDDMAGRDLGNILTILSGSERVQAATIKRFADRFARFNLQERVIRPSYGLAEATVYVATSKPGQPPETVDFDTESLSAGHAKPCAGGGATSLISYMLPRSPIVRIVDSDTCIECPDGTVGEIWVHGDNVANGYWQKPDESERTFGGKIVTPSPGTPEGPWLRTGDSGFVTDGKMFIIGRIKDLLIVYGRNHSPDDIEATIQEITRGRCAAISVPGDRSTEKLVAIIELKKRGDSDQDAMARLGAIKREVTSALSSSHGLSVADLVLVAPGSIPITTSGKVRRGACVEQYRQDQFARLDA

[9] = molecular target: Large T antigen (Simian virus 40, UniProt P03070); assay type: functional, Betapolyomavirus macacae;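 further: Confirmatory-stage PubChem screen for compounds that inhibit SV40 T antigen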
Sequence of Large T antigen (P03070 whole entry): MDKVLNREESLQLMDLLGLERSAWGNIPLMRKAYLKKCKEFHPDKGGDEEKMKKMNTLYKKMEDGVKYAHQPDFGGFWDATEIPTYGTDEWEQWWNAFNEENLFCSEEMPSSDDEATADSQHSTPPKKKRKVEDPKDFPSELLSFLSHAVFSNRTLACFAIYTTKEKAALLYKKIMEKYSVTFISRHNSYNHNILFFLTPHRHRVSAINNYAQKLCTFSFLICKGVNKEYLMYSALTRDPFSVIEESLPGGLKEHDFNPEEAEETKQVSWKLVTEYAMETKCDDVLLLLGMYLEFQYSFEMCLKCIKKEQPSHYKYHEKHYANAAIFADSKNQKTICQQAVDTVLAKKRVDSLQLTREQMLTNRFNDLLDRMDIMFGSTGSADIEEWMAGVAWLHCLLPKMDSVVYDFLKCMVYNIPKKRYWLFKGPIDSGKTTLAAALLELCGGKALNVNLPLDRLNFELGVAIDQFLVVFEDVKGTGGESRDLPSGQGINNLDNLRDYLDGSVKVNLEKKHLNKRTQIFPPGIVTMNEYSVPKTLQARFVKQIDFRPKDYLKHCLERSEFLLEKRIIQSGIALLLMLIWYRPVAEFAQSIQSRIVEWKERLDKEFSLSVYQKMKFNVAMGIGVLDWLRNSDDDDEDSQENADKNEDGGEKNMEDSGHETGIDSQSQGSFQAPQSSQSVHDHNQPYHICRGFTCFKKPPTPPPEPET

Sequence of Arf-GAP with SH3 domain, ANK repeat and PH domain-containing protein 1 (Q9ULH1 whole entry, the tested form may be a part): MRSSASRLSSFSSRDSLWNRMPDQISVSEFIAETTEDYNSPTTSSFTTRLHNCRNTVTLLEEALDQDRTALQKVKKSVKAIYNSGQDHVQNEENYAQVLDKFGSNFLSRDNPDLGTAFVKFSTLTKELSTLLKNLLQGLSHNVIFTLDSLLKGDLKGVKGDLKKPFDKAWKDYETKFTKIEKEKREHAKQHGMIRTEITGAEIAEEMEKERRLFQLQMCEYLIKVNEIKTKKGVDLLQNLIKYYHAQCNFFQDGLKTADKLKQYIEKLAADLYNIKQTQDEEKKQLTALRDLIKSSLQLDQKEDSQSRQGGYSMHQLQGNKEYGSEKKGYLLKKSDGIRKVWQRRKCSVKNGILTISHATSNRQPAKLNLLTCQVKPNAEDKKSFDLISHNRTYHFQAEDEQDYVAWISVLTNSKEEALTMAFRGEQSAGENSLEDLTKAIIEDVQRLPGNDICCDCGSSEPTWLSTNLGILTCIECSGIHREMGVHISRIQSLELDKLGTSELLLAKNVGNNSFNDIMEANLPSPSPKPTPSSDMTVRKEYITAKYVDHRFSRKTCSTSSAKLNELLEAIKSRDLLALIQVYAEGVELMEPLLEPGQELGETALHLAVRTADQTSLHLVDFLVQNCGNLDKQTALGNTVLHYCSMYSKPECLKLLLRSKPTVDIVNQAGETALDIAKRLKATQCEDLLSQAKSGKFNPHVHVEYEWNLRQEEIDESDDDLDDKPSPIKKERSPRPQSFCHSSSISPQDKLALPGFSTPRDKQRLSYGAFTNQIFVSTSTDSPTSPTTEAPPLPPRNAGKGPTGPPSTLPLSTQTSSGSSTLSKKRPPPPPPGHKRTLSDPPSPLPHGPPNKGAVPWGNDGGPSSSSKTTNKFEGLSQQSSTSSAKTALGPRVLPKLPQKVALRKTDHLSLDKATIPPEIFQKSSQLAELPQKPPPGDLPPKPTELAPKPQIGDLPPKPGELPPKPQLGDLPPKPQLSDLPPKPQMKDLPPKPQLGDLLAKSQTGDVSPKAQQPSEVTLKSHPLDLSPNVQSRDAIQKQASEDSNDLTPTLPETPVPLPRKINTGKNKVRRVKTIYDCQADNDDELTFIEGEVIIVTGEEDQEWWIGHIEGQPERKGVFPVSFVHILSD

Cc1ccc2nc(SCC(=O)N3CC(C)OC(C)C3)nc(=O)n2c1 (centres undefined)
IC50 [1]: 20.9 µM (inactive) | IC50 [2]: 10.7 µM (inactive)

CN(C)S(=O)(=O)c1cccc(NC(=S)N/N=C/C2CC=CCC2)c1 (centres undefined)
IC50 [3]: > 59.6 µM (inactive) | IC50 [4]: > 59.6 µM (inactive) | IC50 [5]: > 59.6 µM (inactive) | IC50 [6]: 1 µM (active) | IC50 [7]: 0.335 µM (active)

Cc1[nH]c2ccccc2c1-c1csc(NC(=O)CSCC(=O)O)n1
AC50 [8]: > 100 µM (inactive) | IC50 [9]: 26.2 µM (active)
